From patent US20240360177A1, “PEPTIDES WITH ANTIMICROBIAL ACTIVITIES” (priority 2021, published 2024)
≈ marks a conversion by molar mass, not a printed value. Non-standard residues stand in square brackets, D forms with d. Residues, ends and D or L forms follow the SMILES beside them. hLeu = CC(C)CC[C@H](N)C(=O)O; Aoc = NCCCCCCCC(=O)O; Inp = O=C(O)C1CCNCC1; AEA = NCCOCC(=O)O; Ava = NCCCCC(=O)O; βAla = NCCC(=O)O

Experiments:
Settings in all cases: 24 h
C. krusei = test system: C. krusei
C. auris = test system: C. auris
C. dubliniensis = test system: C. dubliniensis
C. albicans = test system: C. albicans
C. parapsilosis = test system: C. parapsilosis
C. glabrata = test system: C. glabrata
C. tropicalis = test system: C. tropicalis

| Molecule | MIC C. krusei (C. krusei) [µg/mL] | MIC C. auris (C. auris) [µg/mL] | MIC C. dubliniensis (C. dubliniensis) [µg/mL] | MIC C. albicans (C. albicans) [µg/mL] | MIC C. parapsilosis (C. parapsilosis) [µg/mL] | MIC C. glabrata (C. glabrata) [µg/mL] | MIC C. tropicalis (C. tropicalis) [µg/mL] |
| --- | --- | --- | --- | --- | --- | --- | --- |
| N=C(N)NCCC[C@@H](N)C(=O)N[C@@H](CCCNC(=N)N)C(=O)N[C@H](CCCNC(=N)N)C(=O)N1CCC(C(=O)N[C@H](CCCNC(=N)N)C(=O)N[C@@H](CCCNC(=N)N)C(=O)N[C@H](CCCNC(=N)N)C(=O)N2CCC(C(=O)N[C@H](CCCNC(=N)N)C(=O)N[C@@H](CCCNC(=N)N)C(=O)N[C@H](CCCNC(=N)N)C(=O)N[C@@H](CCCNC(=N)N)C(=O)N3CCC(C(=O)N[C@H](CCCNC(=N)N)C(=O)N[C@@H](CCCNC(=N)N)C(=O)N[C@H](CCCNC(=N)N)C(=O)N[C@@H](CCCNC(=N)N)C(N)=O)CC3)CC2)CC1 [SEQ ID NO: 74, rRr-(Inp)-rRr-(Inp)-rRrR-(Inp)-rRrR-NH2] (H-[dR]R[dR][Inp][dR]R[dR][Inp][dR]R[dR]R[Inp][dR]R[dR]R-NH2) | 1 (≈ 0.394 µM) | 0.5 (≈ 0.197 µM) | 0.5 (≈ 0.197 µM) | 0.5 (≈ 0.197 µM) | 0.25 (≈ 0.0985 µM) | 0.5 (≈ 0.197 µM) | 0.5 (≈ 0.197 µM) |
| N=C(N)NCCC[C@@H](N)C(=O)N[C@@H](CCCNC(=N)N)C(=O)N[C@H](CCCNC(=N)N)C(=O)NCCC(=O)N[C@H](CCCNC(=N)N)C(=O)N[C@@H](CCCNC(=N)N)C(=O)N[C@H](CCCNC(=N)N)C(=O)NCCC(=O)N[C@H](CCCNC(=N)N)C(=O)N[C@@H](CCCNC(=N)N)C(=O)N[C@H](CCCNC(=N)N)C(=O)N[C@@H](CCCNC(=N)N)C(=O)NCCC(=O)N[C@@H](CCCNC(=N)N)C(=O)N[C@@H](CCCNC(=N)N)C(=O)N[C@@H](CCCNC(=N)N)C(=O)N[C@@H](CCCNC(=N)N)C(N)=O [SEQ ID NO: 12, rRr-(Apr)-rRr-(Apr)-rRrR-(Apr)-RRRR-NH2] (H-[dR]R[dR][βAla][dR]R[dR][βAla][dR]R[dR]R[βAla]RRRR-NH2) |  |  | 0.5 (≈ 0.207 µM) | 0.5 (≈ 0.207 µM) | 0.5 (≈ 0.207 µM) | >32 | 1 (≈ 0.414 µM) |
| rR-(Apg)-rR-(Apg)-rRr-(Apg)-rRr-NH2 [SEQ ID NO: 39] |  |  | 0.12 | 0.25 | 0.12 | 8 | 0.25 |
| N=C(N)NCCC[C@@H](N)C(=O)N[C@@H](CCCNC(=N)N)C(=O)N[C@H](CCCNC(=N)N)C(=O)NCCCCC(=O)N[C@H](CCCNC(=N)N)C(=O)N[C@@H](CCCNC(=N)N)C(=O)N[C@H](CCCNC(=N)N)C(=O)NCCCCC(=O)N[C@H](CCCNC(=N)N)C(=O)N[C@@H](CCCNC(=N)N)C(=O)N[C@H](CCCNC(=N)N)C(=O)N[C@@H](CCCNC(=N)N)C(=O)NCCOCC(=O)N[C@H](CCCNC(=N)N)C(=O)N[C@@H](CCCNC(=N)N)C(=O)N[C@H](CCCNC(=N)N)C(=O)N[C@@H](CCCNC(=N)N)C(N)=O [SEQ ID NO: 49, rRr-(Ava)-rRr-(Ava)-rRrR-(Aea)-rRrR-NH2] (H-[dR]R[dR][Ava][dR]R[dR][Ava][dR]R[dR]R[AEA][dR]R[dR]R-NH2) |  |  | 0.5 (≈ 0.2 µM) | 1 (≈ 0.4 µM) | 0.5 (≈ 0.2 µM) | 1 (≈ 0.4 µM) | 0.5 (≈ 0.2 µM) |
| CC(C)CC[C@H](NC(=O)[C@@H](CCCNC(=N)N)NC(=O)[C@H](CCCNC(=N)N)NC(=O)[C@@H](CCCNC(=N)N)NC(=O)[C@@H]1CCCN1C(=O)[C@H](CCCNC(=N)N)NC(=O)[C@@H](CCCNC(=N)N)NC(=O)[C@H](CCCNC(=N)N)NC(=O)[C@@H](CCCNC(=N)N)NC(=O)[C@@H]1CCCN1C(=O)[C@@H](CCCNC(=N)N)NC(=O)[C@H](CCCNC(=N)N)NC(=O)[C@@H](CCCNC(=N)N)NC(=O)[C@@H]1CCCN1C(=O)[C@@H](CCCNC(=N)N)NC(=O)[C@H](CCCNC(=N)N)NC(=O)[C@@H](N)CCC(C)C)C(N)=O [SEQ ID NO: 95, (hLeu)Rr-P-rRr-P-rRrR-P-rRr(hLeu)-NH2] (H-[hLeu]R[dR]P[dR]R[dR]P[dR]R[dR]RP[dR]R[dR][hLeu]-NH2) |  |  | 0.5 (≈ 0.205 µM) | 1 (≈ 0.41 µM) | 1 (≈ 0.41 µM) | 0.5 (≈ 0.205 µM) | 1 (≈ 0.41 µM) |
| N=C(N)NCCC[C@@H](N)C(=O)N[C@@H](CCCNC(=N)N)C(=O)N[C@H](CCCNC(=N)N)C(=O)NCCC(=O)N[C@H](CCCNC(=N)N)C(=O)N[C@@H](CCCNC(=N)N)C(=O)N[C@H](CCCNC(=N)N)C(=O)NCCC(=O)N[C@@H](CCCNC(=N)N)C(=O)N[C@@H](CCCNC(=N)N)C(=O)N[C@@H](CCCNC(=N)N)C(=O)N[C@@H](CCCNC(=N)N)C(=O)NCCC(=O)N[C@H](CCCNC(=N)N)C(=O)N[C@@H](CCCNC(=N)N)C(=O)N[C@H](CCCNC(=N)N)C(=O)N[C@@H](CCCNC(=N)N)C(N)=O [SEQ ID NO: 11, rRr-(Apr)-rRr-(Apr)-RRRR-(Apr)-rRrR-NH2] (H-[dR]R[dR][βAla][dR]R[dR][βAla]RRRR[βAla][dR]R[dR]R-NH2) |  |  | 0.5 (≈ 0.207 µM) | 1 (≈ 0.414 µM) | 0.5 (≈ 0.207 µM) | >32 | 2 (≈ 0.828 µM) |
| N=C(N)NCCC[C@@H](N)C(=O)N[C@@H](CCCNC(=N)N)C(=O)N[C@H](CCCNC(=N)N)C(=O)NCCCCCCCC(=O)N[C@H](CCCNC(=N)N)C(=O)N[C@@H](CCCNC(=N)N)C(=O)N[C@H](CCCNC(=N)N)C(=O)NCCCCCCCC(=O)N[C@H](CCCNC(=N)N)C(=O)N[C@@H](CCCNC(=N)N)C(=O)N[C@H](CCCNC(=N)N)C(=O)N[C@@H](CCCNC(=N)N)C(=O)NCCCCCCCC(=O)N[C@H](CCCNC(=N)N)C(=O)N[C@@H](CCCNC(=N)N)C(=O)N[C@H](CCCNC(=N)N)C(=O)N[C@@H](CCCNC(=N)N)C(=O)O [SEQ ID NO: 30, rRr-(Aoa)-rRr-(Aoa)-rRrR-(Aoa)-rRrR] (H-[dR]R[dR][Aoc][dR]R[dR][Aoc][dR]R[dR]R[Aoc][dR]R[dR]R-OH) |  |  | 0.5 (≈ 0.19 µM) | 1 (≈ 0.38 µM) | 0.5 (≈ 0.19 µM) | 1 (≈ 0.38 µM) | 1 (≈ 0.38 µM) |
